Assay results published in the supplement of paper PMC10307832.

Tests used:
Test in all cases: relative viability (nuclei count vs DMSO), 5 days (fraction); higher = more cells survive
AZ505 + Olaparib = compound: C1CCC(CC1)N(CCNCCC2=C3C(=C(C=C2)O)NC(=O)CO3)C(=O)CCNCCC4=CC(=C(C=C4)Cl)Cl [AZ505] + O=C(c1cc(Cc2n[nH]c(=O)c3ccccc23)ccc1F)N1CCN(C(=O)C2CC2)CC1 [Olaparib] (partner 8 µM)
How it was run: (§1)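 Medians of duplicate plates are given as relative viability. That measure is the nuclei count in treated wells divided by the count in vehicle wells. Counts were taken on 4× images of lung cancer cell lines in 1536-well plates, 5 days after pin-tool dosing the day after seeding with one drug alone or a fixed anchor-drug dose plus five library-drug doses (not always all listed) in √10 steps.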

AZ505 + Lapatinib = compound: C1CCC(CC1)N(CCNCCC2=C3C(=C(C=C2)O)NC(=O)CO3)C(=O)CCNCCC4=CC(=C(C=C4)Cl)Cl [AZ505] + CS(=O)(=O)CCNCc1ccc(-c2ccc3ncnc(Nc4ccc(OCc5cccc(F)c5)c(Cl)c4)c3c2)o1 [Lapatinib] (partner 2 µM)
How it was run: as §1

AZ505 + Tozasertib = compound: C1CCC(CC1)N(CCNCCC2=C3C(=C(C=C2)O)NC(=O)CO3)C(=O)CCNCCC4=CC(=C(C=C4)Cl)Cl [AZ505] + Cc1cc(Nc2cc(N3CCN(C)CC3)nc(Sc3ccc(NC(=O)C4CC4)cc3)n2)n[nH]1 [Tozasertib] (partner 0.1 µM)
How it was run: as §1

AZ505 + Bortezomib = compound: C1CCC(CC1)N(CCNCCC2=C3C(=C(C=C2)O)NC(=O)CO3)C(=O)CCNCCC4=CC(=C(C=C4)Cl)Cl [AZ505] + CC(C)C[C@H](NC(=O)[C@H](Cc1ccccc1)NC(=O)c1cnccn1)B(O)O [Bortezomib] (partner 0.002 µM)
How it was run: as §1

Cell Line | relative viability (AZ505 + Olaparib; first compound 0.08 µM) | relative viability (AZ505 + Olaparib; first compound 0.253 µM) | relative viability (AZ505 + Olaparib; first compound 0.8 µM) | relative viability (AZ505 + Olaparib; first compound 2.53 µM) | relative viability (AZ505 + Olaparib; first compound 8 µM) | relative viability (AZ505 + Lapatinib; first compound 0.08 µM) | relative viability (AZ505 + Lapatinib; first compound 0.8 µM) | relative viability (AZ505 + Lapatinib; first compound 2.53 µM) | relative viability (AZ505 + Lapatinib; first compound 8 µM) | relative viability (AZ505 + Tozasertib; first compound 0.08 µM) | relative viability (AZ505 + Tozasertib; first compound 0.253 µM) | relative viability (AZ505 + Tozasertib; first compound 0.8 µM) | relative viability (AZ505 + Tozasertib; first compound 2.53 µM) | relative viability (AZ505 + Tozasertib; first compound 8 µM) | relative viability (AZ505 + Bortezomib; first compound 0.08 µM) | relative viability (AZ505 + Bortezomib; first compound 0.8 µM) | relative viability (AZ505 + Bortezomib; first compound 2.53 µM) | relative viability (AZ505 + Bortezomib; first compound 8 µM) | relative viability (AZ505 + Lapatinib; first compound 0.253 µM) | relative viability (AZ505 + Bortezomib; first compound 0.253 µM)
LXF-289 | 0.988 | 1.11 | 1.01 | 1.05 | 1.01 | 0.876 | 0.869 | 0.857 | 0.869 | 0.2 | 0.172 | 0.183 | 0.21 | 0.229 | 0.875 | 1.02 | 0.975 | 1.02 |  | 
NCI-H2009 | 0.64 | 0.675 | 0.647 | 0.652 | 0.629 | 0.864 | 1.07 | 0.665 | 0.86 | 0.714 | 0.738 | 0.805 | 0.706 | 0.64 | 0.982 | 1.04 | 0.657 | 0.901 | 0.928 | 0.929
NCI-H2405 | 0.742 |  | 0.758 | 0.788 | 0.828 | 0.741 | 0.773 | 0.822 | 0.893 | 0.508 | 0.594 | 0.45 | 0.516 | 0.503 | 0.733 | 0.81 | 0.859 | 0.925 | 0.766 | 0.802
NCI-H1755 | 0.82 | 0.849 | 0.92 | 0.885 | 0.868 | 1.02 | 1.09 | 1.09 | 1.03 | 0.526 | 0.595 | 0.602 | 0.646 | 0.564 | 0.952 | 0.949 | 0.961 | 0.93 | 0.99 | 0.988
HCC-78 |  |  | 0.878 | 0.829 | 1.03 |  | 0.645 | 1.2 | 0.86 | 0.351 | 0.65 | 0.381 | 0.312 | 0.345 | 0.619 | 0.557 | 0.546 | 0.587 | 0.643 | 0.72
LOU-NH91 | 0.87 | 0.897 | 0.886 | 0.903 | 0.894 | 0.753 | 0.761 | 0.84 | 0.779 | 0.654 | 0.696 | 0.577 | 0.591 | 0.625 | 0.46 | 0.536 | 0.527 | 0.453 | 0.724 | 0.508
NCI-H3122 | 0.617 | 0.689 | 0.618 | 0.629 | 0.622 | 1.01 | 1.04 | 0.981 | 1.09 | 0.381 | 0.401 | 0.436 | 0.355 | 0.411 | 1.01 | 1.07 | 1.04 | 1.03 | 1.03 | 1.02
HCC-827 | 0.629 | 0.662 | 0.628 | 0.646 | 0.711 | 0.218 | 0.171 | 0.199 | 0.191 | 0.421 | 0.426 | 0.448 | 0.436 | 0.447 | 0.92 | 1.01 | 1 | 1.1 | 0.191 | 0.957
